Source: patent publication US7423054B2, “Therapeutic pyrazolo[3,4-b]pyridines and indazoles” (Warner Lambert Company LLC, priority 2004, dated 2008)
Structures can show the parent of a compound that is named as a salt.

What was measured:
[1] = target: T1, human norepinephrine transporter (hNET) (Homo sapiens, UniProt P23975); test: hNET receptor binding ([125I]-RTI-55 displacement, membranes of transfected HEK-293 cells); conditions: HEK-293 membranes, Ki from IC50 by Cheng-Prusoff, read-out: NET Ki
T1 construct: expressed in transfected cells; host or cells: HEK-293 cells (membrane preparation)
T1 sequence (P23975 whole entry): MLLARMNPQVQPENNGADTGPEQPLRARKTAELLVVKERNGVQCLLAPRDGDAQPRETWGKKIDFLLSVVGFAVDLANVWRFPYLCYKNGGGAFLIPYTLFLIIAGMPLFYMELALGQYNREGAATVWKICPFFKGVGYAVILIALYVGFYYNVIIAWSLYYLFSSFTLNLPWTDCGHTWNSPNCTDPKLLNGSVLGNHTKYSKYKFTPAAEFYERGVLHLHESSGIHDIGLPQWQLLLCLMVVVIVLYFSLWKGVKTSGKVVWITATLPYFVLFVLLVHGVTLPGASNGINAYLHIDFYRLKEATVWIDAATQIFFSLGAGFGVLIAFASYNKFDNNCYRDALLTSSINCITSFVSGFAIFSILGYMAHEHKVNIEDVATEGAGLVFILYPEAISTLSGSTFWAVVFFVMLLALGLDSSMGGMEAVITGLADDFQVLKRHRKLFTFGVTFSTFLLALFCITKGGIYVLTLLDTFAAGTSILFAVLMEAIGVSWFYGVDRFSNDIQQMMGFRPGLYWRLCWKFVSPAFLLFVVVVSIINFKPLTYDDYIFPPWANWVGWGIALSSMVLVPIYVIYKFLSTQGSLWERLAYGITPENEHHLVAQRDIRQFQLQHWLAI
From the text: (§1) The ability of the compounds of the present invention to inhibit a norepinephrine transporter and/or a serotonin transporter can be determined using conventional radioligand receptor transport assays. The receptors can be heterologously expressed in cell lines and experiments conducted in membrane preparations from the cell lines that express a norepinephrine transporter and/or a serotonin transporter.
(§2) Cell pastes of HEK-293 cells transfected with a human norepinephrine transporter cDNA were prepared. The cell pastes were resuspended in 400 to 700 ml of Krebs-HEPES assay buffer (25 mM HEPES, 122 mM NaCl, 3 mM KCl, 1.2 mM MgSO4, 1.3 mM CaCl2, and 11 mM glucose, pH 7.4) with a Polytron homogenizer at setting 7 for 30 seconds. Aliquots of membranes (5 mg/ml protein) were stored in liquid nitrogen until used.
The binding assay was set up in Beckman deep-well polypropylene plates with a total volume of 250 μl containing: test compound (10^−5M to 10^−12M), cell membranes, and 50 pM [^125I]-RTI-55 (Perkin Elmer, NEX-272; specific activity 2200 Ci/mmol). The reaction was incubated by gentle agitation for 90 minutes at room temperature and was terminated by filtration through Whatman GF/C filter plates using a Brandel 96-well plate harvester. Scintillation fluid (100 μl) was added to each well, and bound [^125I]-RTI-55 was determined using a Wallac Trilux Beta Plate Counter. Test compounds were run in duplicate, and specific binding was defined as the difference between binding in the presence and absence of 10 μM desipramine.
Excel and GraphPad Prism software were used for data calculation and analysis. IC50 values were converted to Ki values using the Cheng-Prusoff equation. The Ki values (nM) for the hNET are reported below in Table 11.

[2] = target: T2, human serotonin transporter (hSERT) (Homo sapiens, UniProt P31645); test: hSERT receptor binding ([125I]-RTI-55 displacement, membranes of transfected HEK-293 cells); conditions: HEK-293 membranes, Ki from IC50 by Cheng-Prusoff, read-out: SERT Ki
T2 construct: expressed in transfected cells; host or cells: HEK-293 cells (membrane preparation)
T2 sequence (P31645 whole entry): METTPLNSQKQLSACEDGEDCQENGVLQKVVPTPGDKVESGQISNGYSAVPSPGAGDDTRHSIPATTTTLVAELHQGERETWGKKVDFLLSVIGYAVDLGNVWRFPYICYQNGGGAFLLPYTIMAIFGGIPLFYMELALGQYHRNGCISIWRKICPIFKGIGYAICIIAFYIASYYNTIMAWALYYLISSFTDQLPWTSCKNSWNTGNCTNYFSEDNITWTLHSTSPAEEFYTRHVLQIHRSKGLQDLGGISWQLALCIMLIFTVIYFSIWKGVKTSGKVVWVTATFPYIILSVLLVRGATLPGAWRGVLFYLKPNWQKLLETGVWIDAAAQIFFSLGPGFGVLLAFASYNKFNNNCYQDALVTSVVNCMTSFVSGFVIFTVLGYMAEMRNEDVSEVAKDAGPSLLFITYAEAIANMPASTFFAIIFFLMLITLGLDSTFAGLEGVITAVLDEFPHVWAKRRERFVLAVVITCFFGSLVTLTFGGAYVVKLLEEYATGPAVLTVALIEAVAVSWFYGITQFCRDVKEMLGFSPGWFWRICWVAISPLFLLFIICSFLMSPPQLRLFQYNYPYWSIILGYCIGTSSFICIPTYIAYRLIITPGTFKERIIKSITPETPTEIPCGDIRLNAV
Protocol: as §1
as §2, with “serotonin” for “norepinephrine”, “Setting” for “setting”, “(˜2.5” for “(5”
Assays were set up in FlashPlates pre-coated with 0.1% PEI in a total volume of 250 μl containing: test compound (10^−5M to 10^−12M), cell membranes, and 50 pM [^125I]-RTI-55 (Perkin Elmer, NEX-272; specific activity 2200 Ci/mmol). The reaction was incubated and gently agitated for 90 minutes at room temperature, and terminated by removal of assay volume. Plates were covered, and bound [^125I]-RTI-55 was determined using a Wallac Trilux Beta Plate Counter. Test compounds were run in duplicate, and specific binding was defined as the difference between binding in the presence and absence of 10 μM citalopram.
Excel and GraphPad Prism software were used for data calculation and analysis. IC50 values were converted to Ki values using the Cheng-Prusoff equation. The Ki values (nM) for the hSERT are reported below in Table 11: […]

Row | Compound | Ki [1] | Ki [2]
1 | Fc1cccc(F)c1-n1nc(OC2CCNCC2)c2ccccc21 [Example 36, 1-(2,6-Difluoro-phenyl)-3-(piperidin-4-yloxy)-1H-indazole hydrochloride] | 5.16 nM | 82.7 nM
2 | Fc1cccc(F)c1-n1nc(OC[C@H]2CCNC2)c2ccccc21 [Example 37, (S)-1-(2,6-Difluoro-phenyl)-3-(pyrrolidin-3-ylmethoxy)-1H-indazole hydrochloride] | 6.05 nM | 105 nM
3 | Fc1ccc(F)c(-n2nc(OC[C@H]3CCCNC3)c3ccccc32)c1 [Example 38, (S)-1-(2,5-Difluoro-phenyl)-3-(piperidin-3-ylmethoxy)-1H-indazole hydrochloride] | 6.09 nM | 199 nM
4 | Fc1ccc(F)c(-n2nc(OC3CCNCC3)c3cc(F)ccc32)c1 [Example 39, 1-(2,5-Difluoro-phenyl)-5-fluoro-3-(piperidin-4-yloxy)-1H-indazole hydrochloride] | 9.57 nM | 34.4 nM
5 | Fc1ccc(F)c(-n2nc(OC[C@@H]3CCNC3)c3cc(F)ccc32)c1 [Example 40, (R)-1-(2,5-Difluoro-phenyl)-5-fluoro-3-(pyrrolidin-3-ylmethoxy)-1H-indazole hydrochloride] | 5.02 nM | 30.8 nM
6 | Clc1ccc(-n2nc(OC3CCNCC3)c3ccccc32)cc1 [Example 41, 1-(4-Chloro-phenyl)-3-(piperidin-4-yloxy)-1H-indazole hydrochloride] | 299 nM | 79.7 nM
7 | c1ccc(-n2nc(OC[C@H]3CCCNC3)c3ccccc32)nc1 [Example 44, (S)-(−)-3-(Piperidin-3-ylmethoxy)-1-pyridin-2-yl-1H-indazole maleate] | 100 nM | 365 nM
8 | Fc1ccc2c(c1)c(OC[C@@H]1CNCCO1)nn2-c1ccccc1F [Example 46, (S)-(+)-5-Fluoro-1-(2-fluorophenyl)-3-(morpholin-2-ylmethoxy)-1H-indazole maleate] | 5.7 nM | 413 nM
9 | Fc1ccc(-n2nc(OC[C@H]3CCCNC3)c3cc(F)ccc32)c(F)c1 [Example 49, (S)-(−)-1-(2,4-Difluorophenyl)-5-fluoro-3-(piperidin-3-ylmethoxy)-1H-indazole hydrochloride] | 98.5 nM | 20.5 nM
10 | Fc1ccc2c(c1)c(OC[C@@H]1CNCCO1)nn2-c1c(F)cccc1F [Example 50, (S)-1-(2,6-Difluoro-phenyl)-5-fluoro-3-(morpholin-2-ylmethoxy)-1H-indazole hydrochloride] | 5.2 nM | 1140 nM
11 | CC1(COc2nn(-c3ccccc3F)c3ccc(F)cc23)CCCNC1 (stereo not shown) [Example 52] | 35.7 nM | 45.4 nM
12 | CC1(COc2nn(-c3ccccc3F)c3ccccc23)CCCNC1 (stereo not shown) [Example 53, 1-(2-Fluoro-phenyl)-3-(3-methyl-piperidin-3-ylmethoxy)-1H-indazole hydrogen chloride] | 54.1 nM | 146 nM
13 | CC1(COc2nn(-c3ccccc3F)c3ccc(F)cc23)CCNCC1 [Example 54, 5-Fluoro-1-(2-fluoro-phenyl)-3-(4-methyl-piperdin-4-ylmethoxy)-1H-indazole hydrogen chloride] | 274 nM | 28.5 nM
14 | Fc1ccc2c(c1)c(OC[C@@H]1CCCNC1)nn2-c1ccccc1F [Example 55, (R)-5-Fluoro-1-(2-fluoro-phenyl)-3-(piperidin-3-ylmethoxy)-1H-indazole maleate] | 71.2 nM | 126 nM

The remaining lines, values ahead:

Row | Ki [1] | Ki [2] | Compound
15 | 56 nM | 134 nM | Fc1ccc(F)c(-n2nc(OC3CCNCC3)c3cc(Cl)ccc32)c1 [Example 58, 5-Chloro-1-(2,5-difluoro-phenyl)-3-(piperidin-4-yloxy)-1H-indazole hydrochloride]
16 | 69.1 nM | 32.7 nM | Cc1cccc2c(OC3CCNCC3)nn(-c3ccccc3)c12 [Example 59, 7-Methyl-1-phenyl-3-(piperidin-4-yloxy)-1H-indazole hydrochloride]
17 | 221 nM | 76.7 nM | COc1cccc2c(OC3CCNCC3)nn(-c3ccccc3)c12 [Example 60, 7-Methoxy-1-phenyl-3-(piperidin-4-yloxy)-1H-indazole hydrochloride]
18 | 20.4 nM | 21.7 nM | Clc1cccc2c(OC3CCNCC3)nn(-c3ccccc3)c12 [Example 61, 7-Chloro-1-phenyl-3-(piperidin-4-yloxy)-1H-indazole hydrochloride]
19 | 495 nM | 314 nM | Cc1cccc2c1c(OC1CCNCC1)nn2-c1ccccc1 [Example 62, 4-Methyl-1-phenyl-3-(piperidin-4-yloxy)-1H-indazole hydrochloride]
20 | 39.5 nM | 19.4 nM | Fc1ccc2c(OC3CCNCC3)nn(-c3ccccc3F)c2c1 [Example 63, 6-Fluoro-1-(2-fluoro-phenyl)-3-(piperidin-4-yloxy)-1H-indazole hydrochloride]
21 | 512 nM | 272 nM | Clc1ccc2c(OC3CCNCC3)nn(-c3ccccc3)c2c1 [Example 64, 6-Chloro-1-phenyl-3-(piperidin-4-yloxy)-1H-indazole hydrochloride]
22 | 4330 nM | 81.2 nM | Fc1ccccc1-n1nc(OC2CCNCC2)c2cccc(C(F)(F)F)c21 [Example 65, 1-(2-fluorophenyl)-3-(piperidin-4-yloxy)-7-(trifluoromethyl)-1H-indazole hydrochloride]
23 | 95.5 nM | 20.5 nM | Cc1ccc2c(OC3CCNCC3)nn(-c3ccccc3)c2c1 [Example 71, 6-Methyl-1-phenyl-3-(piperidin-4-yloxy)-1H-indazole hydrochloride]
24 | 27.4 nM | 9.76 nM | Cc1ccc2c(OC3CCNCC3)nn(-c3ccccc3F)c2c1 [Example 72, 1-(2-Fluoro-phenyl)-6-methyl-3-(piperidin-4-yloxy)-1H-indazole hydrochloride]
25 | 29.3 nM | 304 nM | Fc1ccccc1-n1nc(OCC2CCCNC2)c2cc(Cl)ccc21 (stereo not shown) [Example 73, 5-Chloro-1-(2-fluoro-phenyl)-3-(piperidin-3-ylmethoxy)-1H-indazole hydrochloride]
26 | 60.5 nM | 792 nM | Cc1ccc2c(OCC3CCCNC3)nn(-c3ccccc3F)c2c1 (stereo not shown) [Example 74, 1-(2-Fluoro-phenyl)-6-methyl-3-(piperidin-3-ylmethoxy)-1H-indazole hydrochloride]
27 | 36.4 nM | 39.8 nM | Fc1cc2c(OC3CCNCC3)nn(-c3ccccc3F)c2cc1F [Example 75, 5,6-Difluoro-1-(2-fluoro-phenyl)-3-(piperidin-4-yloxy)-1H-indazole hydrochloride]
28 | 40.4 nM | 158 nM | Fc1cc2c(OCC3CCCNC3)nn(-c3ccccc3F)c2cc1F (stereo not shown) [Example 76, 5,6-Difluoro-1-(2-fluoro-phenyl)-3-(piperidin-3-ylmethoxy)-1H-indazole hydrochloride]
29 | 24.8 nM | 49.5 nM | Fc1cccc(-n2nc(OC3CCNCC3)c3cc(F)ccc32)c1 [Example 77, 5-Fluoro-1-(3-fluoro-phenyl)-3-(piperidin-4-yloxy)-1H-indazole hydrochloride]
30 | 10.2 nM | 39.9 nM | Fc1cccc(-n2nc(OC[C@H]3CCCNC3)c3cc(F)ccc32)c1 [Example 78, (S)-5-Fluoro-1-(3-fluoro-phenyl)-3-(piperidin-3-ylmethoxy)-1H-indazole hydrochloride]
31 | 32.8 nM | 23.7 nM | Fc1ccc(-n2nc(OC3CCNCC3)c3cc(F)ccc32)cc1 [Example 79, 5-Fluoro-1-(4-fluoro-phenyl)-3-(piperidin-4-yloxy)-1H-indazole hydrochloride]
32 | 15 nM | 23.9 nM | Fc1ccc(-n2nc(OC[C@H]3CCCNC3)c3cc(F)ccc32)cc1 [Example 80, (S)-5-Fluoro-1-(4-fluoro-phenyl)-3-(piperidin-3-ylmethoxy)-1H-indazole hydrochloride]
